From BindingDB's records for doi:10.1021/jm00045a022 (National Institute of Diabetes and Digestive and Kidney …, 1994)

Test: Inhibition of [3H](+)-pentazocine binding to sigma receptor of guinea pig brain

## COc1cccc([C@]23CCN(C)[C@H](CC(=O)C2)C3)c1
  Ki: 0.762 µM

## C[N+]1(C)CCC2(c3cccc(O)c3)CC(=O)C(=Cc3ccccc3)C1C2 (configuration not stated) [5-(3-Hydroxy-phenyl)-2,2-dimethyl-7-oxo-8-[1-phenyl-meth-(E)-ylidene]-2-azonia-bicyclo[3.3.1]nonane; iodide]
  Ki: 5.4 µM
